Results as given in ChEMBL document CHEMBL4400544, “Pharmacokinetic evaluation of medicinally important synthetic N,N' diindolylmethane glucoside: Improved synthesis and metabolic stability” (Bioorg Med Chem Lett, 2019).
Values after ≈ are worked out from the molar mass of the structure shown. Active and inactive are the calls of the source. The rule behind the calls is not given here.

Columns and labels:
[1] = Ratio of drug level in blood to plasma (unknown origin) at 500 nM by LC-MS/MS analysis; format: ADME, cell-free; conditions: blood and plasma
[2] = Aqueous solubility of compound after 5 hrs at 25 degC by LC-MS/MS analysis; format: physicochemical; conditions: aqueous medium (not specified further)
[3] = n-Octanol/water partition co-efficient, log P of the compound after 4 hrs by LC-MS/MS analysis; format: physicochemical
[4] = n-Octanol-PBS buffer distribution coefficient, log D of the compound after 4 hrs by LC-MS/MS analysis; format: physicochemical
[5] = organism: Rattus norvegicus; assay: Inhibition of P-gp in rat jejuna mucosa crude membrane fractions assessed as ATPase activity preincubated for 5 mins followed by ATP addition and measured after 30 mins; format: cell membranes
[6] = Protein binding in plasma (unknown origin) at 10 to 100 uM after 4 hrs by LC-MS/MS analysis; format: ADME, cell-free; conditions: read-out: PPB
[7] = Half life in rat liver microsomes at 10 uM in presence of NADPH by LC-MS/MS analysis; format: ADME, Microsome
[8] = Intrinsic clearance in rat liver microsomes assessed per mg protein at 10 uM in presence of NADPH by LC-MS/MS analysis; format: ADME, Microsome; conditions: read-out: CLH
[9] = Hepatic intrinsic clearance in rat liver microsomes assessed per kg body weight at 10 uM in presence of NADPH by LC-MS/MS analysis; format: ADME, Microsome
[10] = Hepatic clearance in rat liver microsomes at 10 uM in presence of NADPH by LC-MS/MS analysis; format: ADME, Microsome
[11] = Hepatic extraction ratio in rat liver microsomes at 10 uM in presence of NADPH by LC-MS/MS analysis; format: ADME, Microsome; conditions: read-out: ERH
[12] = Half life in human liver microsomes at 10 uM in presence of NADPH by LC-MS/MS analysis; format: ADME, Microsome
[13] = Intrinsic clearance in human liver microsomes assessed per mg protein at 10 uM in presence of NADPH by LC-MS/MS analysis; format: ADME, Microsome; conditions: read-out: CLH
[14] = Hepatic intrinsic clearance in human liver microsomes assessed per kg body weight at 10 uM in presence of NADPH by LC-MS/MS analysis; format: ADME, Microsome
[15] = Hepatic clearance in human liver microsomes at 10 uM in presence of NADPH by LC-MS/MS analysis; format: ADME, Microsome
[16] = Hepatic extraction ratio in human liver microsomes at 10 uM in presence of NADPH by LC-MS/MS analysis; format: ADME, Microsome; conditions: read-out: ERH
[17] = Stability in rat liver microsomes at 10 uM in presence of NADPH by LC-MS/MS analysis; format: ADME, Microsome; conditions: read-out: Stability
[18] = Stability in human liver microsomes at 10 uM in presence of NADPH by LC-MS/MS analysis; format: ADME, Microsome; conditions: read-out: Stability
[19] = organism: Rattus norvegicus; assay: Inhibition of P-gp in rat jejuna mucosa crude membrane fractions assessed as reduction in ATPase activity preincubated for 5 mins followed by ATP addition and measured after 30 mins; format: cell membranes

Structure (SMILES): CC(C)NCC(O)COc1ccc(CC(N)=O)cc1 (stereo not given) [ATENOLOL]
- blood plasma ratio at 0.5 µM [1]: ≤ 1.2

Structure (SMILES): CCCCCCCC(c1cn([C@@H]2O[C@H](CO)[C@@H](O)[C@H](O)[C@H]2O)c2ccc(Br)cc12)c1cn([C@@H]2O[C@H](CO)[C@@H](O)[C@H](O)[C@H]2O)c2ccc(Br)cc12
- solubility at 5 h [2]: 5.8 µg/mL (≈ 7.02 µM)
- logP at 4 h [3]: 1.06
- logD at 4 h [4]: 0.08
- Activity [5]: 5.5 to 6.1 µM/min
- fraction unbound at 4 h, up to 100 µM [6]: < 0.01
- blood plasma ratio at 0.5 µM [1]: ≤ 1.4
- half-life at 10 µM [7]: 69.7 min
- microsomal CLint at 10 µM [8]: 20 µL/min/mg
- CLH [9]: 35.9 mL/min/kg
- CLH [10]: 21.7 mL/min/kg
- hepatic extraction ratio at 10 µM [11]: 0.39
- half-life at 10 µM [12]: 80.9 min
- microsomal CLint at 10 µM [13]: 19 µL/min/mg
- CLH [14]: 22.3 mL/min/kg
- CLH [15]: 10.6 mL/min/kg
- hepatic extraction ratio at 10 µM [16]: 0.5
- remaining at 10 µM [17]: > 73%
- remaining at 10 µM [18]: > 73%

Structure (SMILES): O[C@@H](COc1cccc2ncccc12)CN1CCN([C@@H]2c3ccccc3[C@@H]3[C@H](c4ccccc42)C3(F)F)CC1
- inhibition [19]: Active
